From ChEMBL document CHEMBL6153072, “Metabolically Stable Adenylation Inhibitors of Biotin Protein Ligase as Antibacterial Agents” (J Med Chem, 2025)

Columns and labels:
[1] = target: T1, Biotin--[acetyl-CoA-carboxylase] ligase (Mycobacterium tuberculosis (strain ATCC 25618 / H37Rv)) (UniProt I6YFP0); assay: Binding affinity to Mycobacterium tuberculosis BPL assessed as change in gibbs free energy by isothermal titration calorimetry
T1 sequence (whole entry): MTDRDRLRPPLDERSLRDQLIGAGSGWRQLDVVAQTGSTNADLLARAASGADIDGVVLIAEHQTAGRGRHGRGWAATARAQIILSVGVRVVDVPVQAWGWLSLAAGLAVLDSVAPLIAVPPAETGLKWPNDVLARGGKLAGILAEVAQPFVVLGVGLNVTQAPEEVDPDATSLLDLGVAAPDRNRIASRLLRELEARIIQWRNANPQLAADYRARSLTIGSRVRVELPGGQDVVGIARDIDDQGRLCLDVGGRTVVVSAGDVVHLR

[2] = target: T1, Biotin--[acetyl-CoA-carboxylase] ligase (Mycobacterium tuberculosis (strain ATCC 25618 / H37Rv)); assay: Binding affinity to Mycobacterium tuberculosis BPL assessed as change in entropy by isothermal titration calorimetry
[3] = target: T2, Biotin--[acetyl-CoA-carboxylase] ligase (Mycobacterium tuberculosis (strain ATCC 25618 / H37Rv), UniProt I6YFP0); assay: Binding affinity to Mycobacterium tuberculosis BPL assessed as dissociation constant by isothermal titration calorimetry
T2 sequence (I6YFP0 whole entry): T1 sequence (whole entry)

Staphylococcus aureus [4] = assay: Antimicrobial activity against methicillin-sensitive Staphylococcus aureus […] assessed as inhibition of microbial growth incubated for 14 days in biotin-deficient GAST medium by broth microdilution assay; format: functional; conditions: 336 h, time 14 day
[5] = tested on: Mycobacterium tuberculosis; assay: Antimicrobial activity against wild type Mycobacterium tuberculosis H37Rv assessed as inhibition of microbial growth incubated for 14 days in biotin-deficient GAST medium by broth microdilution assay; format: functional; conditions: 336 h, time 14 day
Staphylococcus aureus [6] = assay: Antimicrobial activity against methicillin-resistant Staphylococcus aureus FPR3757 assessed as inhibition of microbial growth incubated for 14 days in biotin-deficient GAST medium by broth microdilution assay; format: functional; conditions: FPR3757, 336 h, time 14 day
[7] = target: T1, Biotin--[acetyl-CoA-carboxylase] ligase (Mycobacterium tuberculosis (strain ATCC 25618 / H37Rv)); assay: Binding affinity to Mycobacterium tuberculosis BPL assessed as change in enthalpy by isothermal titration calorimetry
[8] = Clearance in female CD-1 mouse at 10 mg/kg, iv administered […] measured after 24 hrs by LC-MS/MS analysis; format: ADME, organism-based; conditions: in vivo
[9] = AUC (0 to 24 hrs) in female CD-1 mouse at 10 mg/kg, iv administered […] measured after 24 hrs by LC-MS/MS analysis; format: ADME, organism-based; conditions: in vivo
[10] = Volume of distribution in female CD-1 mouse at 10 mg/kg, iv administered […] measured after 24 hrs by LC-MS/MS analysis; format: ADME, organism-based; conditions: in vivo
[11] = Half life in female CD-1 mouse at 10 mg/kg, iv administered via gavage measured after 24 hrs by LC-MS/MS analysis; conditions: in vivo
[12] = Clearance in female CD-1 mouse at 5 mg/kg, iv administered […] measured after 24 hrs by LC-MS/MS analysis; format: ADME, organism-based; conditions: in vivo
[13] = AUC (0 to 24 hrs) in female CD-1 mouse at 5 mg/kg, iv administered […] measured after 24 hrs by LC-MS/MS analysis; format: ADME, organism-based; conditions: in vivo
[14] = Half life in female CD-1 mouse at 5 mg/kg, iv administered […] measured after 24 hrs by LC-MS/MS analysis; format: ADME, organism-based; conditions: in vivo
[15] = Volume of distribution in female CD-1 mouse at 5 mg/kg, iv administered […] measured after 24 hrs by LC-MS/MS analysis; format: ADME, organism-based; conditions: in vivo
[16] = Drug metabolism in female CD-1 mouse assessed as AUC (0 to 24 hrs) of adenosine-5-sulfamide metabolite at 5 mg/kg, iv administered […] measured after 24 hrs by LC-MS/MS analysis; format: ADME, organism-based; conditions: in vivo
[17] = Hepatic clearance in female CD-1 mouse at 5 mg/kg, iv administered […] measured after 24 hrs by LC-MS/MS analysis; format: ADME, organism-based; conditions: in vivo
[18] = Renal clearance in female CD-1 mouse at 5 mg/kg, iv administered […] measured after 24 hrs by LC-MS/MS analysis; format: ADME, organism-based; conditions: in vivo
HepG2 = assay: Cytotoxicity against human HepG2 cells assessed as inhibition of cell viability preincubated for 24 hrs and measured after 4 hrs by XTT assay; format: functional, cell-based
[19] = Cytotoxicity against African green monkey Vero cells; format: toxicity, cell-based, Chlorocebus sabaeus

SMILES	deltaG [1]	TdeltaS [2]	Kd [3]	MIC50 (Staphylococcus aureus [4])	MIC50 [5]	MIC50 (Staphylococcus aureus [6])	deltaH [7]	clearance [8]	AUC(0-t) at 24 h [9]	Vd [10]	half-life at 24 h [11]	clearance [12]	AUC(0-t) at 24 h [13]	half-life [14]	Vd [15]	AUC [16]	CLH [17]	CL renal at 24 h [18]	IC50 (HepG2)	IC50 [19]
Nc1ncnc2c1ncn2[C@@H]1O[C@H](Cn2cc(CCCCC[C@@H]3SC[C@@H]4NC(=O)N[C@@H]43)nn2)[C@@H](O)[C@H]1O	-9.9 kcal/mol	4.3 kcal/mol	62 nM	30 µM	> 100 µM	15 µM	-14.2 kcal/mol													
Nc1cccc2c1ncn2[C@@H]1O[C@H](CNS(=O)(=O)NC(=O)CCCC[C@@H]2SC[C@@H]3NC(=O)N[C@@H]32)[C@@H](F)[C@H]1O	-9.1 kcal/mol	4.8 kcal/mol	228 nM	> 30 µM	> 100 µM	> 30 µM	-13.9 kcal/mol													
Nc1ncnc2c1ncn2[C@@H]1O[C@H](CNS(=O)(=O)NC(=O)NCCCCC[C@@H]2SC[C@@H]3NC(=O)N[C@@H]32)[C@@H](O)[C@H]1O	-9.4 kcal/mol	0.48 kcal/mol	110 nM	25.7 µM	> 100 µM	12.8 µM	-9.9 kcal/mol													
CC(=O)NC[C@H]1CN(c2ccc(N3CCOCC3)c(F)c2)C(=O)O1 [LINEZOLID]								16.3 mL/min/kg	11000 ng·h/mL	0.63 L/kg	33 min									
Nc1cccc2c1ncn2[C@@H]1O[C@H](CNS(=O)(=O)NC(=O)CCCC[C@@H]2SC[C@@H]3NC(=O)N[C@@H]32)[C@@H](O)[C@H]1O	-9.4 kcal/mol	4.5 kcal/mol	220 nM	> 30 µM	> 100 µM	> 30 µM	-13.9 kcal/mol													
CC(CCC[C@@H]1SC[C@@H]2NC(=O)N[C@@H]21)C(=O)[N-]S(=O)(=O)NC[C@H]1O[C@@H](n2cnc3c(N)ncnc32)[C@H](O)[C@@H]1O.[Na+] (stereo partly drawn)	-10.4 kcal/mol	1.5 kcal/mol	22 nM	0.41 µM	50 µM	0.2 µM	-11.9 kcal/mol					10 mL/min/kg	8640 ng·h/mL	39 min	0.54 L/kg	29 ng·h/mL				
Nc1ncnc2c1ncn2[C@@H]1O[C@H](CNS(=O)(=O)[N-]C(=O)CCCC[C@@H]2SC[C@@H]3NC(=O)N[C@@H]32)[C@@H](O)[C@H]1O.[Na+]	-12.4 kcal/mol	6.6 kcal/mol		0.21 µM	2.2 µM	0.02 µM	-18.9 kcal/mol					58 mL/min/kg	1450 ng·h/mL	11 min	0.94 L/kg	782 ng·h/mL	22.5 mL/min/kg	22.5 mL/min/kg		
Nc1ncnc2c1ncn2[C@@H]1O[C@H](CNS(=O)(=O)NCCCCC[C@@H]2SC[C@@H]3NC(=O)N[C@@H]32)[C@@H](O)[C@H]1O	-10.4 kcal/mol	12.8 kcal/mol	23 nM	28.7 µM	> 100 µM	14.4 µM	-23.2 kcal/mol													
CN(C(=O)CCCC[C@@H]1SC[C@@H]2NC(=O)N[C@@H]21)S(=O)(=O)NC[C@H]1O[C@@H](n2cnc3c(N)ncnc32)[C@H](O)[C@@H]1O	-9.7 kcal/mol	0.14 kcal/mol	120 nM	> 30 µM	> 100 µM	> 30 µM	-9.6 kcal/mol													
Nc1ncnc2c1ncn2[C@@H]1O[C@H](CNS(=O)(=O)[N-]C(=O)NCCC[C@@H]2SC[C@@H]3NC(=O)N[C@@H]32)[C@@H](O)[C@H]1O.[Na+]		0.5 kcal/mol		0.2 µM	20 µM	0.2 µM						7 mL/min/kg	11200 ng·h/mL	42 min	0.45 L/kg	32 ng·h/mL			> 100000 nM	
Nc1ncnc2c1ncn2[C@@H]1O[C@H](CNS(=O)(=O)NC(=S)NCCCC[C@@H]2SC[C@@H]3NC(=O)N[C@@H]32)[C@@H](O)[C@H]1O	-9.9 kcal/mol	4.3 kcal/mol	60 nM	28.7 µM	> 100 µM	7.2 µM	-14.2 kcal/mol													
Nc1ncnc2c1ncn2[C@@H]1O[C@H](CNS(=O)(=O)NC(=O)NCCCC[C@@H]2SC[C@@H]3NC(=O)N[C@@H]32)[C@@H](O)[C@H]1O	-9.9 kcal/mol	1.6 kcal/mol	55 nM	0.25 µM	> 100 µM	0.12 µM	-11.5 kcal/mol													
C[C@@H]1NC(=O)N[C@@H]1CCCCCC(=O)NS(=O)(=O)NC[C@H]1O[C@@H](n2cnc3c(N)cccc32)[C@H](O)[C@@H]1O	-10.6 kcal/mol	3 kcal/mol	19 nM	> 30 µM	> 100 µM	> 30 µM	-13.6 kcal/mol													
Nc1ncnc2c1ncn2[C@@H]1O[C@H](Cn2cc(C(=O)CCCC[C@@H]3SC[C@@H]4NC(=O)N[C@@H]43)nn2)[C@@H](O)[C@H]1O				29.4 µM	> 100 µM	29.4 µM														
Nc1ncnc2c1ncn2[C@@H]1O[C@H](CNS(N)(=O)=O)[C@@H](O)[C@H]1O																				6000 nM
Nc1cccc2c1ncn2CCCCNS(=O)(=O)NC(=O)CCCC[C@@H]1SC[C@@H]2NC(=O)N[C@@H]21	-9.1 kcal/mol	3.2 kcal/mol	220 nM	> 30 µM	21 µM	> 30 µM	-12.3 kcal/mol													
